Laboratory results reported in ChEMBL document CHEMBL1123450, “A theoretical study of the binding of polychlorinated biphenyls (PCBs), dibenzodioxins, and dibenzofuran to human plasma prealbumin” (J Med Chem, 1986).

Experiment: KPCB/ K352 ratio of the compound

Row | SMILES | Ratio
1 | Oc1c(I)cc(I)cc1I | 33.8
2 | Oc1c(Cl)cc(-c2cc(Cl)c(O)c(Cl)c2)cc1Cl | 45.5
3 | Clc1cc(-c2cc(Cl)c(Cl)c(Cl)c2)cc(Cl)c1Cl | 27.7
4 | Oc1c(Cl)cc(-c2ccc(Cl)cc2)cc1Cl | 27.5
5 | Oc1ccc(-c2c(Cl)cc(Cl)cc2Cl)cc1 | 2.91
6 | Oc1ccc(-c2cc(Cl)c(Cl)c(Cl)c2Cl)cc1 | 24.3
7 | Oc1c(Cl)cc(Cl)cc1-c1ccccc1 | 1
8 | Oc1c(Cl)cc(-c2ccccc2)cc1Cl | 45
9 | O=C1C(Cl)=CC(=C2C=C(Cl)C(=O)C(Cl)=C2)C=C1Cl | 2.92
